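Tested at 5 concentrations; 48 h exposure; 96-well plates; endpoints linearly interpolated, else capped at highest concentration. Abbreviation: GI50, concentration required for 50% inhibition of growth.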 Active and inactive are the calls of the source. Cut-off read from the data, not from the text of the source: active = GI50 up to about 1.1 µM and inactive = higher.
Experiments:
Test in all cases: NCI tumour cell line growth inhibition, 48 h
UO-31 = test system: UO-31
SW-620 = test system: SW-620
SK-MEL-28 = test system: SK-MEL-28
KM-20L2 = test system: KM-20L2
LOX IMVI = test system: LOX IMVI
OVCAR-8 = test system: OVCAR-8
DMS-273 = test system: DMS-273
HCC 2998 = test system: HCC 2998
SF-539 = test system: SF-539
HCT-116 = test system: HCT-116
IGROV-1 = test system: IGROV-1
K562 = test system: K562
TK-10 = test system: TK-10
SK-MEL-5 = test system: SK-MEL-5
ACHN = test system: ACHN
HL-60 = test system: HL-60
SR = test system: SR
HT-29 = test system: HT-29
OVCAR-5 = test system: OVCAR-5
KM12 = test system: KM12
RPMI-8226 = test system: RPMI-8226
EKVX = test system: EKVX
LXFL 529 = test system: LXFL 529
UACC-257 = test system: UACC-257
NCI-H460 = test system: NCI-H460
U-251 = test system: U-251
OVCAR-4 = test system: OVCAR-4
COLO 205 = test system: COLO 205
A549 = test system: A549
HCT-15 = test system: HCT-15
M14 = test system: M14
DMS-114 = test system: DMS-114
SF-268 = test system: SF-268
MOLT-4 = test system: MOLT-4
NCI-H23 = test system: NCI-H23
M19-MEL = test system: M19-MEL
HOP-62 = test system: HOP-62
OVCAR-3 = test system: OVCAR-3
SNB-75 = test system: SNB-75
SK-MEL-2 = test system: SK-MEL-2
SNB-19 = test system: SNB-19
HOP-92 = test system: HOP-92
RXF 393 = test system: RXF 393
SNB-78 = test system: SNB-78
UACC-62 = test system: UACC-62
SN12C = test system: SN12C
A498 = test system: A498
NCI-H226 = test system: NCI-H226
XF498 = test system: XF498
786-0 = test system: 786-0
NCI-H522 = test system: NCI-H522
SF-295 = test system: SF-295
CCRF-CEM = test system: CCRF-CEM
SK-OV-3 = test system: SK-OV-3
DLD-1 = test system: DLD-1
NCI/ADR-RES = test system: NCI/ADR-RES
MCF7 = test system: MCF7
Malme-3M = test system: Malme-3M
CAKI-1 = test system: CAKI-1

SMILES: COc1ccc(NC(=S)NNC(=O)c2nsc3ccccc23)cc1
- GI50 (UO-31): 25.2 µM (inactive)
- GI50 (SW-620): 48.4 µM (inactive)
- GI50 (SK-MEL-28): 34.3 µM (inactive)
- GI50 (KM-20L2): 39.1 µM (inactive)
- GI50 (LOX IMVI): 34.4 µM (inactive)
- GI50 (OVCAR-8): 43.7 µM (inactive)
- GI50 (DMS-273): 26.1 µM (inactive)
- GI50 (HCC 2998): 68.2 µM (inactive)
- GI50 (SF-539): 28.3 µM (inactive)
- GI50 (HCT-116): 28.4 µM (inactive)
- GI50 (IGROV-1): 35.1 µM (inactive)
- GI50 (K562): 30.9 µM (inactive)
- GI50 (TK-10): 43.4 µM (inactive)
- GI50 (SK-MEL-5): 30.8 µM (inactive)
- GI50 (ACHN): 43.9 µM (inactive)
- GI50 (HL-60): 19.9 µM (inactive)
- GI50 (SR): 31 µM (inactive)
- GI50 (HT-29): 45.9 µM (inactive)
- GI50 (OVCAR-5): > 100 µM (inactive)
- GI50 (KM12): 37.3 µM (inactive)
- GI50 (RPMI-8226): 22.3 µM (inactive)
- GI50 (EKVX): 28.3 µM (inactive)
- GI50 (LXFL 529): 39.4 µM (inactive)
- GI50 (UACC-257): 36 µM (inactive)
- GI50 (NCI-H460): 33.5 µM (inactive)
- GI50 (U-251): 40.8 µM (inactive)
- GI50 (OVCAR-4): 62.2 µM (inactive)
- GI50 (COLO 205): 43.9 µM (inactive)
- GI50 (A549): 37.2 µM (inactive)
- GI50 (HCT-15): 21.8 µM
- GI50 (M14): 17.8 µM (inactive)
- GI50 (DMS-114): 32.1 µM (inactive)
- GI50 (SF-268): 34.4 µM (inactive)
- GI50 (MOLT-4): 24.5 µM (inactive)
- GI50 (NCI-H23): 41.8 µM (inactive)
- GI50 (M19-MEL): 33 µM (inactive)
- GI50 (HOP-62): 43.5 µM (inactive)
- GI50 (OVCAR-3): 22.2 µM (inactive)
- GI50 (SNB-75): 24.9 µM (inactive)
- GI50 (SK-MEL-2): 25.1 µM (inactive)
- GI50 (SNB-19): 26.9 µM (inactive)
- GI50 (HOP-92): 17.4 µM (inactive)
- GI50 (RXF 393): 22 µM (inactive)
- GI50 (SNB-78): 41.7 µM (inactive)
- GI50 (UACC-62): 27.7 µM (inactive)
- GI50 (SN12C): 31.8 µM (inactive)

SMILES: COc1ccc(C(=O)O)c(Br)c1OCc1ccccc1
- GI50 (UO-31): 88.3 µM (inactive)
- GI50 (SW-620): > 100 µM (inactive)
- GI50 (SK-MEL-28): > 100 µM (inactive)
- GI50 (A498): > 100 µM (inactive)
- GI50 (KM-20L2): > 100 µM (inactive)
- GI50 (LOX IMVI): > 100 µM (inactive)
- GI50 (OVCAR-8): > 100 µM (inactive)
- GI50 (DMS-273): > 100 µM (inactive)
- GI50 (SF-539): > 100 µM (inactive)
- GI50 (HCT-116): > 100 µM (inactive)
- GI50 (IGROV-1): > 100 µM (inactive)
- GI50 (K562): > 100 µM (inactive)
- GI50 (TK-10): > 100 µM (inactive)
- GI50 (SK-MEL-5): > 100 µM (inactive)
- GI50 (ACHN): > 100 µM (inactive)
- GI50 (HL-60): > 100 µM (inactive)
- GI50 (HT-29): > 100 µM (inactive)
- GI50 (OVCAR-5): > 100 µM (inactive)
- GI50 (KM12): > 100 µM (inactive)
- GI50 (RPMI-8226): > 100 µM (inactive)
- GI50 (NCI-H226): > 100 µM (inactive)
- GI50 (XF498): > 100 µM (inactive)
- GI50 (EKVX): > 100 µM (inactive)
- GI50 (LXFL 529): > 100 µM (inactive)
- GI50 (786-0): > 100 µM (inactive)
- GI50 (NCI-H460): > 100 µM (inactive)
- GI50 (U-251): > 100 µM (inactive)
- GI50 (OVCAR-4): > 100 µM (inactive)
- GI50 (COLO 205): > 100 µM (inactive)
- GI50 (NCI-H522): > 100 µM (inactive)
- GI50 (A549): > 100 µM (inactive)
- GI50 (HCT-15): > 100 µM
- GI50 (M14): > 100 µM (inactive)
- GI50 (DMS-114): > 100 µM (inactive)
- GI50 (SF-295): > 100 µM (inactive)
- GI50 (SF-268): > 100 µM (inactive)
- GI50 (CCRF-CEM): > 100 µM (inactive)
- GI50 (MOLT-4): > 100 µM (inactive)
- GI50 (NCI-H23): > 100 µM (inactive)
- GI50 (M19-MEL): > 100 µM (inactive)
- GI50 (HOP-62): > 100 µM (inactive)
- GI50 (OVCAR-3): > 100 µM (inactive)
- GI50 (SNB-75): > 100 µM (inactive)
- GI50 (SK-MEL-2): > 100 µM (inactive)
- GI50 (SK-OV-3): > 100 µM (inactive)
- GI50 (SNB-19): > 100 µM (inactive)
- GI50 (HOP-92): > 100 µM (inactive)
- GI50 (RXF 393): > 100 µM (inactive)
- GI50 (SNB-78): > 100 µM (inactive)
- GI50 (UACC-62): > 100 µM (inactive)
- GI50 (SN12C): 92.5 µM (inactive)
- GI50 (DLD-1): > 100 µM (inactive)

SMILES: O=NN(CCCl)C(=O)Nc1ccc(Cl)c(Cl)c1
- GI50 (UO-31): 45.7 µM (inactive)
- GI50 (SW-620): > 100 µM (inactive)
- GI50 (NCI/ADR-RES): 48.4 µM (inactive)
- GI50 (SK-MEL-28): > 100 µM (inactive)
- GI50 (A498): > 83.8 µM (inactive)
- GI50 (KM-20L2): 25.3 µM (inactive)
- GI50 (MCF7): 38.5 µM (inactive)
- GI50 (LOX IMVI): 78.5 µM (inactive)
- GI50 (OVCAR-8): 71.6 µM (inactive)
- GI50 (Malme-3M): > 100 µM (inactive)
- GI50 (DMS-273): 72.8 µM (inactive)
- GI50 (HCC 2998): > 60.7 µM (inactive)
- GI50 (SF-539): > 91.2 µM (inactive)
- GI50 (HCT-116): > 100 µM (inactive)
- GI50 (IGROV-1): > 56.5 µM (inactive)
- GI50 (K562): 36.9 µM (inactive)
- GI50 (SK-MEL-5): 71.6 µM (inactive)
- GI50 (HL-60): > 100 µM (inactive)
- GI50 (HT-29): 76.6 µM (inactive)
- GI50 (OVCAR-5): > 67.9 µM (inactive)
- GI50 (CAKI-1): 81.1 µM (inactive)
- GI50 (KM12): > 77.3 µM (inactive)
- GI50 (RPMI-8226): 50 µM (inactive)
- GI50 (NCI-H226): 46.6 µM (inactive)
- GI50 (XF498): 72.8 µM (inactive)
- GI50 (EKVX): 46.9 µM (inactive)
- GI50 (UACC-257): > 100 µM (inactive)
- GI50 (NCI-H460): 56.8 µM (inactive)
- GI50 (U-251): 52 µM (inactive)
- GI50 (OVCAR-4): 61.1 µM (inactive)
- GI50 (COLO 205): > 100 µM (inactive)
- GI50 (NCI-H522): 28.3 µM (inactive)
- GI50 (A549): > 100 µM (inactive)
- GI50 (HCT-15): > 71.6 µM
- GI50 (DMS-114): 6.67 µM (inactive)
- GI50 (SF-295): 48.5 µM (inactive)
- GI50 (SF-268): 31.6 µM (inactive)
- GI50 (CCRF-CEM): 59.8 µM (inactive)
- GI50 (MOLT-4): > 100 µM (inactive)
- GI50 (NCI-H23): > 69.7 µM (inactive)
- GI50 (M19-MEL): 69.5 µM (inactive)
- GI50 (HOP-62): 0.546 µM (active)
- GI50 (OVCAR-3): 41.9 µM (inactive)
- GI50 (SNB-75): > 100 µM (inactive)
- GI50 (SK-MEL-2): > 82.2 µM (inactive)
- GI50 (SK-OV-3): > 94.8 µM (inactive)
- GI50 (SNB-19): > 63 µM (inactive)
- GI50 (HOP-92): > 77.8 µM (inactive)
- GI50 (RXF 393): > 100 µM (inactive)
- GI50 (SNB-78): > 56.9 µM (inactive)
- GI50 (UACC-62): 45.9 µM (inactive)
- GI50 (SN12C): > 100 µM (inactive)
- GI50 (DLD-1): 53.5 µM (inactive)

From ChEMBL document CHEMBL1201862, “PubChem BioAssay data set” (2004)
